Earlier results, collected in paper PMC6974622, “DeepMalaria: Artificial Intelligence Driven Discovery of Potent Antiplasmodials” (Frontiers in Pharmacology, 2020).
Several values for one entry are separate records, joined by “and”; a condition that tells them apart may be missing. Equal entries are not always repeated. Structures can show the parent of a compound that is named as a salt. *1 amine or outer side, *2 acyl side, *3 side chain or, on linkers, in order; H or OH if unused. Where a SMILES comes first, the peptide text is derived from it. Bridges are numbered along the chain shown (N, C = ends). Roman numbers before positions name the chains, in order. [ ]: non-standard residue; d: D form. Actinocin(1to9) = Cc1c2oc3c(C)ccc(C(=O)[*:2])c3nc-2c(C(=O)[*:1])c(N)c1=O; Actinocin(9to1) = Cc1c2oc3c(C)ccc(C(=O)[*:1])c3nc-2c(C(=O)[*:2])c(N)c1=O; NMeV = CN[C@H](C(=O)O)C(C)C; Sar = CNCC(=O)O

Test system: 3D7
Design: unit not given here
Conditions: cited from earlier work

In order of falling 3D7:
1. CC[C@H](C)[C@@H]1NC(=O)[C@@H](NC(=O)c2c3nc4c(C(=O)N[C@@H]5C(=O)N[C@@H](C(C)C)C(=O)N6CCC[C@H]6C(=O)N(C)CC(=O)N(C)[C@@H](C(C)C)C(=O)O[C@@H]5C)ccc(C)c4oc-3c(C)c(=O)c2N)[C@@H](C)OC(=O)[C@H](C(C)C)N(C)C(=O)CN(C)C(=O)[C@@H]2CCCN2C1=O [Cactinomycin] (I: TIP[Sar][NMeV] / II: TVP[Sar][NMeV]; ester I:1-I:C, II:1-II:C; linker I:N-II:N via Actinocin(1to9))  99
2. CC1=CC(=C(c2ccc(N)cc2)c2ccc(N)cc2)C=CC1=N.Cl [Basic fuchsin]  96.3
3. O=P1(N(CCCl)CCCl)NCCCO1 (centres unmarked) [Cyclophosphamide]  56.2

Same assay, conditions: repurposing dataset, 179 approved drugs; ref https://www.nature.com/articles/nchembio806; cited from earlier work

In order of rising 3D7:
1. C[N+](C)(C)CCCCCCCCCC[N+](C)(C)C [Decamethonium bromide]  54.8
2. O.O=C(O)c1cc(O)c2c(c1)[O][Bi][O]2 [Bismuth gallate]  56.5
3. CC/C(=C(/CC)c1ccc(O)cc1)c1ccc(O)cc1 [Diethylstilbestrol]  57.3
4. C[C@@H]1[C@H](O)[C@@H](C)/C=C/C=C/C=C/C=C/C=C/C=C/C=C/[C@H](O[C@@H]2O[C@H](C)[C@@H](O)[C@H](N)[C@@H]2O)C[C@@H]2O[C@](O)(C[C@@H](O)C[C@@H](O)[C@H](O)CC[C@@H](O)C[C@@H](O)CC(=O)O[C@H]1C)C[C@H](O)[C@H]2C(=O)O [Amphotericin B]  59.2
5. CN(C)CCOC(c1ccccc1)c1ccc(Br)cc1 (centres unmarked) [Bromodiphenhydramine]  64.2
6. CCOC(=O)C1=C(COCCN)NC(C)=C(C(=O)OC)C1c1ccccc1Cl (centres unmarked) [Amlodipine besylate]  68.2
7. C=CC(=O)O [Acrylic acid]  68.8
8. C[N+](C)(CCOc1ccccc1)Cc1ccccc1.O=C(O)c1cc2ccccc2cc1[O-] [Bephenium hydroxynaphthoate]  70.2
9. CN1[C@@H]2CC[C@H]1C[C@@H](OC(c1ccccc1)c1ccccc1)C2 [Benztropine mesylate]  70.6
10. N=C(N)NC(=O)c1nc(Cl)c(N)nc1N [Amiloride]  73.2
11. CCCCCCCCCCCCCCCC[N+](C)(C)Cc1ccccc1 [Cetalkonium chloride]  74.2
12. CNC(=O)Oc1ccc2c(c1)[C@]1(C)CCN(C)[C@@H]1N2C [Eserine]  79.2
13. NC1CCN(c2c(F)cc3c(=O)c(C(=O)O)cn(C4CC4)c3c2Cl)C1 (centres unmarked) [Clinafloxacin]  79.3
14. CC[C@H]1OC(=O)[C@H](C)[C@@H](O[C@H]2C[C@@](C)(OC)[C@@H](O)[C@H](C)O2)[C@H](C)[C@@H](O[C@@H]2O[C@H](C)C[C@H](N(C)C)[C@H]2O)[C@](C)(O)C[C@@H](C)CN(C)[C@H](C)[C@@H](O)[C@]1(C)O [Azithromycin]  80.2
15. O=S(=O)([O-])[O-].[Cu+2] [Copper sulfate]  80.4
16. Clc1ccc2c(c1)CCc1cccnc1C2=C1CCNCC1 [Desloratadine]  81.1
17. O=c1[nH]c2ccccc2n1CCCN1CCC(n2c(=O)[nH]c3cc(Cl)ccc32)CC1 [Domperidone]  82.2
18. Oc1ccc(Cl)c2cccnc12 [Cloxyquin]  83.6
19. CCC(=O)O[C@]1(C(=O)CCl)[C@@H](C)C[C@H]2[C@@H]3CCC4=CC(=O)C=C[C@]4(C)[C@@]3(F)[C@@H](O)C[C@@]21C [Clobetasol propionate]  86
20. O=c1oc2c(O)c(O)cc3c(=O)oc4c(O)c(O)cc1c4c23 [Ellagic acid]  87.1
21. CN1C[C@H](C(=O)N[C@]2(C)O[C@@]3(O)[C@@H]4CCCN4C(=O)[C@H](Cc4ccccc4)N3C2=O)C[C@@H]2c3cccc4[nH]cc(c34)C[C@H]21 [Dihydroergotamine mesylate]  88.1
22. C=C[C@H]1CN2CC[C@H]1C[C@@H]2[C@@H](O)c1ccnc2ccccc12.C=C[C@H]1CN2CC[C@H]1C[C@@H]2[C@@H](O)c1ccnc2ccccc12.O=S(=O)(O)O [Cinchonine sulfate]  88.6
23. C[N+]1(C)CCC(=C(c2ccccc2)c2ccccc2)CC1 [Diphemanil]  90
24. Oc1c(Br)cc(Br)c2cccnc12 [Broxyquinoline]  90.8
25. CN(C)CCOC(C)(c1ccccc1)c1ccc(Cl)cc1 (centres unmarked) [Chlorphenoxamine]  90.8
26. CCCCOc1ccc(CC(=O)NO)cc1 [Bufexamac]  93.2
27. [H]/N=C(\N/C(=N/[H])NCCCCCCNC(=N)NC(=N)Nc1ccc(Cl)cc1)Nc1ccc(Cl)cc1 [Chlorhexidine]  95.4
28. Nc1nc(N)c2nc(CNc3ccc(C(=O)N[C@@H](CCC(=O)O)C(=O)O)cc3)cnc2n1 [Aminopterin]  95.7
29. CN(CCCCCCCCCCN(C)C(=O)Oc1cccc([N+](C)(C)C)c1)C(=O)Oc1cccc([N+](C)(C)C)c1 [Demecarium bromide]  95.9
30. COc1cc2nc(N3CCN(C(=O)C4COc5ccccc5O4)CC3)nc(N)c2cc1OC (centres unmarked) [Doxazosin mesylate]  96.4
31. CN1CCC[C@@H]1CCO[C@](C)(c1ccccc1)c1ccc(Cl)cc1 [Clemastine]  96.5
32. Oc1ccc(CCN2CCC(Nc3nc4ccccc4n3Cc3ccc(F)cc3)CC2)cc1 [Desmethylastemizole]  96.7
33. Cc1cc(C2CCCCC2)n(O)c(=O)c1 [Ciclopirox olamine]  96.9
34. COc1ccc(C[C@H]2NC[C@H](O)[C@H]2OC(C)=O)cc1 [Anisomycin]  97
35. C=C[C@H]1CN2CC[C@H]1C[C@H]2[C@H](O)c1ccnc2ccccc12 [Cinchonidine]  97
36. CCN(CC)CCCC(C)Nc1ccnc2cc(Cl)ccc12 (centres unmarked) [Chloroquine diphosphate]  97.3
37. CCOC(=O)NC1=C(N2CC2)C(=O)C(NC(=O)OCC)=C(N2CC2)C1=O [Diaziquone]  97.3
38. Nc1c2ccccc2nc2ccccc12 [Aminacrine]  97.6
39. COc1ccc(CCN2CCC(Nc3nc4ccccc4n3Cc3ccc(F)cc3)CC2)cc1 [Astemizole]  97.6
40. Cc1cc(N)c2ccccc2[n+]1CCCCCCCCCC[n+]1c(C)cc(N)c2ccccc21 [Dequalinium chloride]  97.6
41. C[C@@H]1C[C@@H]([C@H](O)CC2CC(=O)NC(=O)C2)C(=O)[C@@H](C)C1 [Cycloheximide]  97.7
42. CCN1/C(=C/C=C/C=C/c2sc3ccccc3[n+]2CC)Sc2ccccc21 [Dithiazanine iodide]  98
43. COc1ccc2cc3[n+](cc2c1OC)CCc1cc2c(cc1-3)OCO2 [Berberine]  98.2
44. CCCCCCCCCCCC[N+](C)(C)CCOc1ccccc1 [Domiphen bromide]  98.3
45. CC[C@H]1CN2CCc3cc(OC)c(OC)cc3[C@@H]2C[C@@H]1C[C@H]1NCCc2cc(OC)c(OC)cc21 [Emetine]  98.3
46. CCCCCCc1ccc(O)cc1O.Nc1c2ccccc2nc2ccccc12 [Acrisorcin]  98.4
47. CO[C@@H]1[C@H](O)C[C@@H](O[C@@H]2C[C@H](Oc3cc4cc5c(c(O)c4c(O)c3C)C(=O)[C@@H](O[C@H]3C[C@@H](O[C@H]4C[C@@H](O[C@H]6C[C@](C)(O)[C@@H](OC(C)=O)[C@H](C)O6)[C@H](O)[C@@H](C)O4)[C@H](O)[C@@H](C)O3)[C@H]([C@H](OC)C(=O)[C@@H](O)[C@@H](C)O)C5)O[C@H](C)[C@@H]2OC(C)=O)O[C@@H]1C [Chromomycin A3]  98.4
48. COc1cccc2c1C(=O)c1c(O)c3c(c(O)c1C2=O)C[C@@](O)(C(=O)CO)C[C@@H]3O[C@H]1C[C@H](N)[C@@H](O)[C@H](C)O1 [Epirubicin]  98.4
49. N[C@H](C(=O)O)[C@@H]1CC(Cl)=NO1 [Acivicin]  98.6
50. CC(C)(C)CC(C)(C)c1ccc(OCCOCC[N+](C)(C)Cc2ccccc2)cc1 [Benzethonium chloride]  98.6
51. CCCCCCCCCCCCCCCC[n+]1ccccc1 [Cetylpyridinium chloride]  98.6
52. C[C@H]1[C@H](OC(=O)CCC(=O)O)O[C@@H]2O[C@@]3(C)CC[C@H]4[C@H](C)CC[C@@H]1[C@@]24OO3 [Artesunate]  98.7
53. CO[C@H]1/C=C\O[C@@]2(C)Oc3c(C)c(O)c4c(O)c(c(C=O)c(O)c4c3C2=O)NC(=O)/C(C)=C\C=C/[C@H](C)[C@H](O)[C@@H](C)[C@@H](O)[C@@H](C)[C@H](OC(C)=O)[C@@H]1C [3-formyl rifamycin]  99
54. C[C@@H]1CC[C@H]2[C@@H](C)C(=O)O[C@@H]3O[C@@]4(C)CC[C@@H]1[C@]32OO4 [Artemisinin]  99.1
55. Cc1c2oc3c(C)ccc(C(=O)N[C@@H]4C(=O)N[C@H](C(C)C)C(=O)N5CCC[C@H]5C(=O)N(C)CC(=O)N(C)[C@@H](C(C)C)C(=O)O[C@@H]4C)c3nc-2c(C(=O)N[C@@H]2C(=O)N[C@H](C(C)C)C(=O)N3CCC[C@H]3C(=O)N(C)CC(=O)N(C)[C@@H](C(C)C)C(=O)O[C@@H]2C)c(N)c1=O [Dactinomycin] (I: T[dV]P[Sar][NMeV] / II: T[dV]P[Sar][NMeV]; ester I:1-I:C, II:1-II:C; linker I:N-II:N via Actinocin(9to1))  99.2
56. CC(=O)OC[C@H]1O[C@@H]([S-])[C@H](OC(C)=O)[C@@H](OC(C)=O)[C@@H]1OC(C)=O.CCP(CC)CC.[Au+] [Auranofin]  99.4
57. CCCCC(CC)CNC(=N)NC(=N)NCCCCCCNC(=N)NC(=N)NCC(CC)CCCC (centres unmarked) [Alexidine]  99.5
58. COc1cccc2c1C(=O)c1c(O)c3c(c(O)c1C2=O)C[C@@](O)(C(=O)CO)C[C@@H]3O[C@H]1C[C@H](N)[C@H](O)[C@H](C)O1 [Doxorubicin]  99.5
59. CC[C@@]1(O)C[C@H](O[C@H]2C[C@H](N(C)C)[C@H](O[C@H]3C[C@H](O)[C@H](O[C@H]4CCC(=O)[C@H](C)O4)[C@H](C)O3)[C@H](C)O2)c2c(cc3c(c2O)C(=O)c2c(O)cccc2C3=O)[C@H]1C(=O)OC [Aclarubicin]  99.6
60. COc1cccc2c1C(=O)c1c(O)c3c(c(O)c1C2=O)C[C@@](O)(C(C)=O)C[C@@H]3O[C@H]1C[C@H](N)[C@H](O)[C@H](C)O1 [Daunorubicin]  99.6
61. CCCCCCCCCCCC[N+](C)(C)Cc1ccccc1 [Benzododecinium chloride]  99.9

For `C[n+]1c2cc(N)ccc2cc2ccc(N)cc21.Nc1ccc2cc3ccc(N)cc3nc2c1.[Cl-]` [Acriflavine], the 3D7 is listed as 98.2 and 99.
